The results in this text go back to ChEMBL document CHEMBL2321807, “Synthesis and in vitro biological evaluation of lipophilic cation conjugated photosensitizers for targeting mitochondria” (Bioorg Med Chem, 2013).

The source made the active and inactive calls. The rule behind the calls is not given here.

The nature of data set [1]: n-octanol-water distribution coefficient, log D of the compound at pH 7.4 by shake flask method. Format: physicochemical.
Data set [2] in a line: Drug uptake in human MCF7 cells mitochondria at 5 uM after 14 hrs by Rh-123-based dual fluorescence staining method. Format: ADME, cell-based. Particulars: mcf7, 14 h.
Data set [3] has as its system Colon 26. Put plainly: Phototoxicity against mouse Colon 26 cells incubated for 24 hrs prior to irradiation measured after 30 mins by MTT assay. It is filed as functional, cell-based. Particulars: Colon 26, light or radiation study. Background: Formazan colour is commonly taken as a measure of viable cells.
Data set [4] has as its system Colon 26. Put plainly: Dark toxicity against mouse Colon 26 cells up to 5 uM after 24 hrs by MTT assay. Format: functional, cell-based.
Data set [5] has as its system Colon 26. Put plainly: Phototoxicity against mouse Colon 26 cells up to 5 uM incubated for 24 hrs prior to irradiation measured after 30 mins by MTT assay. Format: functional.
Data set [6] concerns Colon 26. Kind of data set: Drug uptake in mouse Colon 26 cells at 5 uM after 24 hrs by fluorimetric analysis relative to CMP-OH. Particulars: colon 26, 24 h. Format: ADME, cell-based.
The test system of data set [7] is Colon 26. Put plainly: Drug uptake in mouse Colon 26 cells at 5 to 10 uM after 24 hrs by fluorimetric analysis. Format: ADME, cell-based. Particulars: colon 26, 24 h.
The subject of data set [8] is Colon 26. Put plainly: Drug uptake in mouse Colon 26 cells at 10 uM after 24 hrs by fluorimetric analysis relative to CMP-OH. Format: ADME, cell-based. Particulars: colon 26, 24 h.
A short description of data set [9]: Drug uptake in human MCF7 cells cytoplasm at 5 uM after 14 hrs by Rh-123-based dual fluorescence staining method. It is filed as ADME, cell-based. Particulars: mcf7, 14 h.
Data set [10] concerns Colon 26. Put plainly: Drug uptake in mouse Colon 26 cells assessed per cell at 5 uM after 24 hrs by fluorimetric analysis. It is filed as ADME, cell-based. Particulars: colon 26, 24 h.

For the compound `C1=Cc2nc1c(-c1ccccc1)c1ccc(s1)c(-c1ccccc1)c1nc(c(-c3ccc(OCCC[P+](c4ccccc4)(c4ccccc4)c4ccccc4)cc3)c3ccc(s3)c2-c2ccccc2)C=C1.[Br-]`, the log distribution coefficient (logD) in data set [1] is 2.04. In addition, the Drug uptake result in data set [2] is “Not Active”; with Colon 26 [7] it was “Active”. Besides, the IC50 in the data set on Colon 26 [3] was 900 nM. The outcome in the data set on Colon 26 [4] was inactive. Also, the Activity with Colon 26 [5] is given as more than 70%. The “fold change (FC)” value in the data set on Colon 26 [6] is reported as 18.9; with Colon 26 [8], 14.

For the compound `CCN(CC)c1ccc2c(-c3ccccc3C(=O)O)c3ccc(=[N+](CC)CC)cc-3oc2c1` [RHODAMINE B], in data set [1], the logD came to 2.07.

For `CCN(CC)c1ccc2c(-c3ccccc3C(C)=O)c3ccc(=[N+](CC)CC)cc-3oc2c1`, the result with Colon 26 [4] and in the data set with Colon 26 [5] was inactive.

`CCN(CC)c1ccc2c(-c3ccccc3C(=O)OCCCOc3ccc(-c4c5nc(c(-c6ccccc6)c6ccc(s6)c(-c6ccccc6)c6nc(c(-c7ccccc7)c7ccc4s7)C=C6)C=C5)cc3)c3ccc(=[N+](CC)CC)cc-3oc2c1.[Cl-]`: in data set [1], the logD was 2.01. Moreover, the Drug uptake entry (in [2]; in data set [9]; with Colon 26 [7]) was “Active” in each case. In the data set with Colon 26 [3], this compound gave a concentration for half-maximal inhibition (IC50) of 2360 nM. Also, in the data set with Colon 26 [4], the result was inactive. In addition, the Activity with Colon 26 [5] was more than 70%. The “fold change (FC)” value amounted to 10.6 in the data set with Colon 26 [6] and 7 in the data set on Colon 26 [8].

In the case of `C1=Cc2nc1c(-c1ccccc1)c1ccc(s1)c(-c1ccccc1)c1nc(c(-c3ccc(OCCC[P+](c4ccccc4)(c4ccccc4)c4ccccc4)cc3)c3ccc(s3)c2-c2ccc(OCCC[P+](c3ccccc3)(c3ccccc3)c3ccccc3)cc2)C=C1.[Br-].[Br-]`, in data set [1], the logD came out at 1.79. The Drug uptake entry (in data set [2]; with Colon 26 [7]) was “Active” throughout. Moreover, in the data set with Colon 26 [3], the IC50 is 1670 nM. Further, the result with Colon 26 [4] was inactive. The same compound returned an Activity in the data set on Colon 26 [5] of more than 70%. Also, the “fold change (FC)” value is 8.3 in the data set on Colon 26 [6] and 7 in the data set with Colon 26 [8].

As for `C1=Cc2nc1c(-c1ccccc1)c1nc(c(-c3ccccc3)c3ccc([nH]3)c(-c3ccccc3)c3ccc([nH]3)c2-c2ccccc2)C=C1`, the result in the data set on Colon 26 [4] was inactive.

Consider `Oc1ccc(-c2c3nc(c(-c4ccccc4)c4ccc(s4)c(-c4ccccc4)c4nc(c(-c5ccccc5)c5ccc2s5)C=C4)C=C3)cc1`, for which the logD in data set [1] turned out to be 2.3. Besides, the Drug uptake with Colon 26 [10] is given as 0.19 fmol. Besides, the outcome with Colon 26 [4] and in the data set on Colon 26 [5] was inactive.

What is called logD is the decadic logarithm of the distribution of all forms, ionised or not, between an organic phase and buffer at a given pH. The term IC50 denotes the concentration that gives 50% inhibition. Low readings indicate inhibition by little substance, high ones a need for much substance.
